Measurements as given in BindingDB's records for doi:10.1021/acs.jmedchem.5b01939 (University of Messina, 2016).
One block for each compound: values may come before it.

Columns and labels:
[1] = target: T1, G protein-coupled receptor kinase 5 (Bos taurus, UniProt P43249); assay: (§1) Inhibition of bovine GRK5 assessed as decrease in phosphorylation of tubulin after 5 mins by SDS-PAGE analysis
Rhodopsin kinase GRK1 [2] = target: T2, Rhodopsin kinase GRK1 (Bos taurus, UniProt P28327); assay: ChEBML_1612830
T2 sequence (P28327 whole entry): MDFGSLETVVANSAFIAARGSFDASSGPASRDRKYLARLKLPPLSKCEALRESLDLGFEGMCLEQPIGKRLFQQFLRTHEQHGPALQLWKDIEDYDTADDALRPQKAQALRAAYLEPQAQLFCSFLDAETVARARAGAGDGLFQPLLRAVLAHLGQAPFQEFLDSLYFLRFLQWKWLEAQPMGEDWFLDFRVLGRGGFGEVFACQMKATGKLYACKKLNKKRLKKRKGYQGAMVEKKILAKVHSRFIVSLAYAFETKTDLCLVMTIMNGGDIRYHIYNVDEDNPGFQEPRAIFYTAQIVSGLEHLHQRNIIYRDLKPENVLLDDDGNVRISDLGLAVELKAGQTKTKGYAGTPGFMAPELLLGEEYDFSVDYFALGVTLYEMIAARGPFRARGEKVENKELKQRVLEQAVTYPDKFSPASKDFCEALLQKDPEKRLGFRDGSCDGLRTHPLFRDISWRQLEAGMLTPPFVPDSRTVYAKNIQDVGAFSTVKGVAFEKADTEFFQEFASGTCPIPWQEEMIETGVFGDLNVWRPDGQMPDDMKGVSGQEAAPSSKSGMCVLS
Procedure: (§2) Inhibition of bovine GRK1 (1 to 535 residues) assessed as decrease in phosphorylation of tubulin after 5 mins by SDS-PAGE analysis

[3] = target: T1, G protein-coupled receptor kinase 5; assay: Inhibition of C-terminal hexahistidine tagged bovine GRK5 (561 residues) assessed as decrease in phosphorylation of light-activated bovine rod outer segments preincubated for 30 mins followed by ATP addition
Rhodopsin kinase GRK1 [4] = target: T2, Rhodopsin kinase GRK1; assay: Inhibition of C-terminal hexahistidine tagged bovine GRK1 (535 residues) assessed as decrease in phosphorylation of light-activated bovine rod outer segments preincubated for 30 mins followed by ATP addition
[5] = target: T1, G protein-coupled receptor kinase 5; assay: Inhibition of C-terminal hexahistidine tagged bovine GRK5 (561 residues) assessed as decrease in phosphorylation of tubulin preincubated for 30 mins followed by ATP addition
Rhodopsin kinase GRK1 [6] = target: T2, Rhodopsin kinase GRK1; assay: Inhibition of C-terminal hexahistidine tagged bovine GRK1 (535 residues) assessed as decrease in phosphorylation of tubulin preincubated for 30 mins followed by ATP addition
Rhodopsin kinase GRK1 [7] = target: T2, Rhodopsin kinase GRK1; assay: as §2
[8] = target: T1, G protein-coupled receptor kinase 5; assay: ChEBML_1612831; procedure: as §1

T1 sequence (P43249 whole entry): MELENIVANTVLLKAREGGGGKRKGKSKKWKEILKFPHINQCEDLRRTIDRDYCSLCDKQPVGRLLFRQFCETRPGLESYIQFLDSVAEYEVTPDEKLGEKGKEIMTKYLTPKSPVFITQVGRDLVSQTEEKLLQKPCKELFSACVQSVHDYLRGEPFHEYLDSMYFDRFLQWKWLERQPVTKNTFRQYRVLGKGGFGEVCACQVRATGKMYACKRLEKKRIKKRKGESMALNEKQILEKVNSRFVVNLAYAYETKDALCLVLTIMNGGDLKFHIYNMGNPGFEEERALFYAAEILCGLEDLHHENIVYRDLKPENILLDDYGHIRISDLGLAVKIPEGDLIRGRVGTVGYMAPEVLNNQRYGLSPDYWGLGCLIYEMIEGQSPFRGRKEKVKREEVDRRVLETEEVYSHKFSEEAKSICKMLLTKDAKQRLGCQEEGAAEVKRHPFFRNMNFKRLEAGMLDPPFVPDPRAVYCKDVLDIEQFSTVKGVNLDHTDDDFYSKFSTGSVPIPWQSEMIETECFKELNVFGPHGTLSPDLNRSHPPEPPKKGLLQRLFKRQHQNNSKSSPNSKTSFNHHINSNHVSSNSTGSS

- IC50 [1]: 39.8 µM
Structure (SMILES): CC1=C(C(=O)Nc2cc(Cl)c3[nH]ncc3c2)C(c2ccc(C(F)(F)F)cc2)CC(=O)N1 (centres undefined) [N-(7-chloro-1H-indazol-5-yl)-2-methyl-6-oxo-4-[4-(trifluoromethyl)phenyl]-1,4,5,6-tetrahydropyridine-3-carboxamide]

Structure (SMILES): Fc1ccc([C@@H]2CCNC[C@H]2COc2ccc3c(c2)OCO3)cc1 [PAROXETINE]
- IC50 (Rhodopsin kinase GRK1 [2]): 398 µM
- IC50 [3]: 251 µM
- IC50 (Rhodopsin kinase GRK1 [4]): 316 µM
- IC50 [5]: 126 µM
- IC50 (Rhodopsin kinase GRK1 [6]): 158 µM

- IC50 (Rhodopsin kinase GRK1 [7]): 794 µM
- IC50 [1]: 63.1 µM
Structure (SMILES): CC1=C(C(=O)Nc2ccc3[nH]ncc3c2)C(c2ccc3ccccc3c2)CC(=O)N1 (centres undefined) [N-(1H-indazol-5-yl)-2-methyl-4-(naphthalen-2-yl)-6-oxo-1,4,5,6-tetrahydropyridine-3-carboxamide]

- IC50 [8]: 79.4 µM
Structure (SMILES): CC1=C(C(=O)Nc2ccc3[nH]ncc3c2)C(c2ccc(Cl)c(Cl)c2)CC(=O)N1 (centres undefined) [4-(3,4-Dichlorophenyl)-N-1H-indazol-5-yl-2-methyl-6-oxo-1,4,5,6-tetrahydropyridine-3-carboxamide]
